Measurements reported in patent US12285397B2, “Use of (s)-3-amino-4-(difluoromethylenyl) cyclopent-1-ene-1-carboxylic acid and related compounds, (1S,3S)-3-amino-4-(difluoromethylidene) cyclopentane-1-carboxylic acid and vigabatrin in the treatment of developmental disorders” (Ovid Therapeutics Inc., priority 2018, dated 2025).

Experiments:
Assay type in all cases: in vivo, mouse
Fmr1 KO2 mice [1] = experiment: Open field repetitive behavior: counter revolutions (CCW), Fmr1 KO2 mice
Text: (§1) Mutant fmr1 knockout (KO) mice recapitulate the Fragile X syndrome (FXS) phenotype and represent a preclinical model for assessment of putative drug treatments. In this study three different mice models of FXS were used: Fmr1 KO1 is the original Fmr1 knockout animal that carries an insertion in exon 5. See, e.g., Bakker C E, et al., The Dutch-Belgian Fragile X Consortium, Fmr1 knockout mice: A model to study fragile X mental retardation. Cell. 1994; 78:23-33 It is a protein null, although Fmr1 mRNA is still present. It is backcrossed to the C57/B16 strain. Subsequently, these mice were bred into different background strains, such as the FVB inbred mouse strain. Fmr1 KO2 is a null allele at Fmr1 generated by deletion of the promoter and first exon of Fmr1. See, Mientjes, E J et al., The generation of a conditional Fmr1 knock out mouse model to study Fmrp function in vivo. Neurobiology of Disease (2006) 21(3): 549-555. It is both protein and mRNA null. Backcrossed to the C57/B16 strain. Genotyping was accomplished using TransnetXY Automated Genotyping (http://www.transnetyx.com/). TRANSNETYX, INC., 8110 Cordova Rd. Suite 119, Cordova, TN 38016, USA.
(§2) The mice were housed in plastic cages (35×30×12 cm), 5 in each and habituated to the animal facilities for at least a week before test. The room temperature (21±2° C.), relative humidity (55±5%), a 12-h light-dark cycle (lights on 7 a.m.-7 p.m.) and air exchange (16 times per h) were automatically controlled. The animals had free access to commercial food pellets and water. Testing was conducted during the light phase. Testing was conducted on Fmr1 knockout mice and their wild-type (WT) littermates. Ten mice per treatment group, 14 weeks of age, were used for behavioral experiments. Experiments were conducted in line with the requirements of the UK Animals (Scientific Procedures) Act, 1986.
(§3) Oral dosing was performed by using 1.5-in. curved, 20-gauge, stainless steel feeding needles with a 2.25-mm ball (Braintree Scientific, Braintree, MA). Each gavage treatment was given in 0.5% methyl cellulose (Methyl Cellulose M0512, Sigma-Aldrich, St Louis, MO) used as vehicle with or without treatment compounds. The same veterinarian, blinded to the treatment groups, performed the procedure, and documented animal reactions to oral gavage. Reactions considered to indicate stress were defined as excessive struggling during gavage or abnormal behavior after gavage (labored breathing, frozen stance, exaggerated jumping, shuddering, and hunched posture).
(§4) For experiments all mice were tested once in the same apparatus. Prior to testing, mice not in the study were placed in the apparatus for some minutes before the experiment. The apparatus was then cleaned with moist and dry tissues before testing each mouse. The aim was to create a low but constant background mouse odor for all experimental subjects. All experiments were conducted with the experimenters blind to genotype and drug treatment during all testing and data analysis. Separate investigators prepared and coded dosing solutions, allocated the mice to the study treatment groups, dosed the animals, and collected the behavioral data. Data were analyzed by one-way analysis of variance (ANOVA) followed by post-hoc comparisons where appropriate using Tukey's Multiple Comparison Test. Data are represented as the mean and standard error of the mean (SEM).
(§5) 2. Open Field Repetitive Behaviors (stereotypies: anticlockwise circling (aka counter revolutions) (CCW) and self grooming). Fmr1 KO2 mice display the autism-like phenotypes of repetitive behaviors like CCW, self grooming and stereotypy that typically involves behaviors such as head bobbing. […]

Fmr1 KO2 mice [2] = experiment: Open field repetitive behavior: self grooming, Fmr1 KO2 mice; parameters: Effect on abnormal self grooming phenotype (FIG. 3): dose or concentration left out as unconfirmed
Text: as §1, §2, §3, §4, §5

Fmr1 KO2 mice [3] = experiment: Tests of daily living (nesting), Fmr1 KO2 mice
Text: as §1, §2, §3, §4
3. Tests of daily living (nesting). Species-typical behaviors offer easy ways to test for hippocampal dysfunction. The hippocampus is vital for the performance of species-typical tasks, or “activities of daily living” of mice. […]

Fmr1 KO2 mice [4] = experiment: Hyponeophagia (anxiety, latency to eat), Fmr1 KO2 mice
Text: as §1, §2, §3, §4
4. Hyponeophagia (inhibition of feeding) is used as a measure of anxiety which can be produced by a novel environment, particularly in rodents. […]

Fmr1 KO1 mice [5] = experiment: Open field hyperactivity (locomotor activity), Fmr1 KO1 mice
Text: as §1, §2, §3, §4
1. […]

Fmr1 KO1 mice [6] = experiment: Tests of daily living (nesting), Fmr1 KO1 mice
Text: as §1, §2, §3, §4
3. Tests of daily living (Nesting): FIG. 11 is a bar graph illustrating nest building quality by wild-type mice administered 0.5% methyl cellulose vehicle, Fmr1 KO1 mice administered 0.5% methyl cellulose, Fmr1 KO1 mice administered (S)-3-amino-4-(difluoromethylenyl) cyclopent-1-ene-1-carboxylic acid 0.01 mg/kg, Fmr1 KO1 mice administered (S)-3-amino-4-(difluoromethylenyl) cyclopent-1-ene-1-carboxylic acid 0.05 mg/kg, and Fmr1 KO1 mice administered (S)-3-amino-4-(difluoromethylenyl) cyclopent-1-ene-1-carboxylic acid 0.1 mg/kg.

N[C@H]1C=C(C(=O)O)CC1=C(F)F [Compound, (S)-3-Amino-4-(difluoromethylenyl)cyclopent-1-ene-1-carboxylic acid]
Open field counter revolutions (CCW), WT-Veh vs. KO2-Compound: Significant? (Fmr1 KO2 mice [1]; 0.01 mg/Kg PO QD seven days): Yes | Open field counter revolutions (CCW), WT-Veh vs. KO2-Compound: Significant? (Fmr1 KO2 mice [1]; 0.05 mg/Kg PO QD seven days): No | Open field counter revolutions (CCW), WT-Veh vs. KO2-Compound: Summary (Fmr1 KO2 mice [1]; 0.05 mg/Kg PO QD seven days): ns | Open field counter revolutions (CCW), WT-Veh vs. KO2-Compound: Significant? (Fmr1 KO2 mice [1]; 0.1 mg/Kg PO QD seven days): No | Open field counter revolutions (CCW), WT-Veh vs. KO2-Compound: Summary (Fmr1 KO2 mice [1]; 0.1 mg/Kg PO QD seven days): ns | Effect on CCW revolutions phenotype (FIG. 2) (Fmr1 KO2 mice [1]; 0.05 and 0.1 mg/Kg): rescued | Effect on abnormal self grooming phenotype (FIG. 3) (Fmr1 KO2 mice [2]): rescued | Time spent grooming (self grooming), WT-Veh vs. KO2-Compound: Significant? (Fmr1 KO2 mice [2]; 0.01 mg/Kg PO QD seven days): Yes | Time spent grooming (self grooming), WT-Veh vs. KO2-Compound: Significant? (Fmr1 KO2 mice [2]; 0.05 mg/Kg PO QD seven days): No | Time spent grooming (self grooming), WT-Veh vs. KO2-Compound: Summary (Fmr1 KO2 mice [2]; 0.05 mg/Kg PO QD seven days): ns | Time spent grooming (self grooming), WT-Veh vs. KO2-Compound: Significant? (Fmr1 KO2 mice [2]; 0.1 mg/Kg PO QD seven days): No | Time spent grooming (self grooming), WT-Veh vs. KO2-Compound: Summary (Fmr1 KO2 mice [2]; 0.1 mg/Kg PO QD seven days): ns | Nesting, WT-Veh vs. KO2-Compound: Significant? (Fmr1 KO2 mice [3]; 0.01 mg/Kg PO QD seven days): Yes | Nesting, WT-Veh vs. KO2-Compound: Significant? (Fmr1 KO2 mice [3]; 0.05 mg/Kg PO QD seven days): No | Nesting, WT-Veh vs. KO2-Compound: Summary (Fmr1 KO2 mice [3]; 0.05 mg/Kg PO QD seven days): ns | Nesting, WT-Veh vs. KO2-Compound: Significant? (Fmr1 KO2 mice [3]; 0.1 mg/Kg PO QD seven days): No | Nesting, WT-Veh vs. KO2-Compound: Summary (Fmr1 KO2 mice [3]; 0.1 mg/Kg PO QD seven days): ns | Effect on poorer nest building phenotype (FIG. 5) (Fmr1 KO2 mice [3]; 0.05 and 0.1 mg/Kg): rescued | Hyponeophagia (latency to eat), WT-Veh vs. KO2-Compound: Significant? (Fmr1 KO2 mice [4]; 0.01 mg/Kg PO QD seven days): Yes | Hyponeophagia (latency to eat), WT-Veh vs. KO2-Compound: Significant? (Fmr1 KO2 mice [4]; 0.05 mg/Kg PO QD seven days): No | Hyponeophagia (latency to eat), WT-Veh vs. KO2-Compound: Summary (Fmr1 KO2 mice [4]; 0.05 mg/Kg PO QD seven days): ns | Hyponeophagia (latency to eat), WT-Veh vs. KO2-Compound: Significant? (Fmr1 KO2 mice [4]; 0.1 mg/Kg PO QD seven days): No | Hyponeophagia (latency to eat), WT-Veh vs. KO2-Compound: Summary (Fmr1 KO2 mice [4]; 0.1 mg/Kg PO QD seven days): ns | Effect on latency to eat in hyponeophagia test (FIG. 6) (Fmr1 KO2 mice [4]; 0.05 and 0.1 mg/Kg): decreasing their latency to eat to virtually control levels | Open field (hyperactivity, total distance traveled), WT-Veh vs. KO1-Compound: Significant? (Fmr1 KO1 mice [5]; 0.01 mg/Kg PO QD seven days): Yes | Open field (hyperactivity, total distance traveled), WT-Veh vs. KO1-Compound: Significant? (Fmr1 KO1 mice [5]; 0.05 mg/Kg PO QD seven days): Yes | Open field (hyperactivity, total distance traveled), WT-Veh vs. KO1-Compound: Significant? (Fmr1 KO1 mice [5]; 0.1 mg/Kg PO QD seven days): No | Open field (hyperactivity, total distance traveled), WT-Veh vs. KO1-Compound: Summary (Fmr1 KO1 mice [5]; 0.1 mg/Kg PO QD seven days): ns | Nesting, WT-Veh vs. KO1-Compound: Significant? (Fmr1 KO1 mice [6]; 0.01 mg/Kg PO QD seven days): Yes | Nesting, WT-Veh vs. KO1-Compound: Significant? (Fmr1 KO1 mice [6]; 0.05 mg/Kg PO QD seven days): No | Nesting, WT-Veh vs. KO1-Compound: Summary (Fmr1 KO1 mice [6]; 0.05 mg/Kg PO QD seven days): ns | Nesting, WT-Veh vs. KO1-Compound: Significant? (Fmr1 KO1 mice [6]; 0.1 mg/Kg PO QD seven days): No | Nesting, WT-Veh vs. KO1-Compound: Summary (Fmr1 KO1 mice [6]; 0.1 mg/Kg PO QD seven days): ns | Effect on nesting behavior (FIG. 11) (Fmr1 KO1 mice [6]; 0.05 and 0.1 mg/Kg): rescues poor nesting behavior
